Source: patent publication US8273773B2 (priority 2008, dated 2012)

Molecular target: T1, HCV polymerase (NS5B570n-Con1) (Hepatitis C virus genotype 1b, UniProt Q9WMX2)
T1 construct: contains a 21 amino acid deletion at the C-terminus relative to the full-length HCV polymerase; 6-histidine (N); made in house; host or cells: E. coli strain BL21(DE) pLysS (pET17b)
Experiment: biochemical
Design: species or system HCV Con1 strain
Settings: IC50 HCV NS5B RNA Polymerase Assay (values with asterisk), values with asterisk: cIRES RNA template, 3 nM NS5B570n-Con1
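Also: recombinant His-tagged enzyme from E. coli, radiolabeled nucleotide incorporation into acid-insoluble RNA read by scintillation after filtration, no-enzyme background subtracted, activity relative to positive control.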

Question: With `COCc1cc(NS(C)(=O)=O)ccc1/C=C/c1cc(-c2ccc[nH]c2=O)cc(C(C)(C)C)c1OC` [I-206, N-(4-{E-2-[3-tert-Butyl-2-methoxy-5-(2-oxo-1,2-dihydro-pyridin-3-yl)-phenyl]-vinyl}-3-methoxymethyl-phenyl)-methanesulfonamide] as the compound, how does the IC50 read?
Answer: The IC50 was 2 nM.

Question: For `Cc1cc(-c2ccc[nH]c2=O)cc(C2(C)CCCC2)c1` [I-27], which IC50 is on record?
Answer: The IC50 was 5380 nM.

Question: For `COc1c(/C=C/c2ccncc2C#N)cc(-c2ccc[nH]c2=O)cc1C(C)(C)C` [I-245, 4-{(L)-2-[3-tert-Butyl-2-methoxy-5-(2-oxo-1,2-dihydro-pyridin-3-yl)-phenyl]-vinyl}-nicotinonitrile], which IC50 is on record?
Answer: The IC50 was 1 nM.

Question: Which IC50 does the source give for `COc1c(/C=C/c2ccccc2C#N)cc(-c2ccc[nH]c2=O)cc1C(C)(C)C` [I-238, 2-{(E)-2-[3-tert-Butyl-2-methoxy-5-(2-oxo-1,2-dihydro-pyridin-3-yl)-phenyl]-vinyl}-benzonitrile] here?
Answer: The IC50 was 2 nM.

Question: For `CS(=O)(=O)Nc1ccc(/C=C/c2cc(-c3cc(F)c[nH]c3=O)cc(C3(Cl)CC3)c2)cc1` [I-273, N-(4-{(E)-2-[3-(1-Chloro-cyclopropyl)-5-(5-fluoro-2-oxo-1,2-dihydro-pyridin-3-yl)-phenyl]-vinyl}-phenyl)-methanesulfonamide], which IC50 is on record?
Answer: The IC50 was 3 nM.

Question: Which IC50 does the source give for `COc1c(/C=C/c2ccc(NS(C)(=O)=O)cc2)cc(-c2cc(F)c[nH]c2=O)cc1C1(C(F)F)CC1` [I-269, N-(4-{(E)-2-[3-(1-Difluoromethyl-cyclopropyl)-5-(5-fluoro-2-oxo-1,2-dihydro-pyridin-3-yl)-2-methoxy-phenyl]-vinyl}-phenyl)-methanesulfonamide] here?
Answer: Its IC50 is 3 nM.

Question: How did the IC50 turn out when `COc1c(NC(=O)c2ccc(NCC(F)(F)F)c(F)c2)cc(-c2ccc[nH]c2=O)cc1C(C)(C)C` [I-251, N-[3-tert-Butyl-2-methoxy-5-(2-oxo-1,2-dihydro-pyridin-3-yl)-phenyl]-3-fluoro-4-(2,2,2-trifluoro-ethylamino)-benzamide] was run?
Answer: The IC50 was 2 nM.

Question: `COc1c(/C=C/c2ncc(NS(C)(=O)=O)cc2C)cc(-c2ccc[nH]c2=O)cc1C(C)(C)C` [I-213, N-(6-{(E)-2-[3-tert-Butyl-2-methoxy-5-(2-oxo-1,2-dihydro-pyridin-3-yl)-phenyl]-vinyl}-5-methyl-pyridin-3-yl)-methanesulfonamide] was tested. Which IC50 did it give?
Answer: The IC50 was 3 nM.

Question: `COC(=O)c1cc(NS(C)(=O)=O)ccc1CCc1cc(-c2cc(F)c[nH]c2=O)cc(C(C)(C)C)c1OC` [I-189] was tested. Which IC50 did it give?
Answer: The IC50 was 1 nM.

Question: How did the IC50 turn out when `CS(=O)(=O)Nc1ccc(/C=C/c2cc(-c3ccc[nH]c3=O)cc(C3(F)CCC3)c2)cc1` [I-271, N-(4-{(E)-2-[3-(1-Fluoro-cyclobutyl)-5-(2-oxo-1,2-dihydro-pyridin-3-yl)-phenyl]-vinyl}-phenyl)-methanesulfonamide] was run?
Answer: Its IC50 is 4 nM.

Question: For `COc1c(/C=C/c2ccc(NS(=O)(=O)CCN3CCCC3)cc2)cc(-c2cc(F)c[nH]c2=O)cc1C(C)(C)C` [I-232, 2-Pyrrolidin-1-yl-ethanesulfonic acid (4-{(E)-2-[3-tert-butyl-5-(5-fluoro-2-oxo-1,2-dihydro-pyridin-3-yl)-2-methoxy-phenyl]-vinyl}-phenyl)-amide], which IC50 is on record?
Answer: The IC50 was 1 nM.

Question: `COc1ccc(-c2cc(/C=C/c3ccc(NS(C)(=O)=O)cc3C(=O)O)c(OC)c(C(C)(C)C)c2)c(=O)[nH]1` [I-211, 2-{(E)-2-[3-tert-Butyl-2-methoxy-5-(6-methoxy-2-oxo-1,2-dihydro-pyridin-3-yl)-phenyl]-vinyl}-5-methanesulfonylamino-benzoic acid] was tested. Which IC50 did it give?
Answer: The IC50 was 4 nM.

Question: How did the IC50 turn out when `COc1c(/C=C/c2ccc(NS(C)(=O)=O)cc2)cc(-c2ccc(COCCO)[nH]c2=O)cc1C(C)(C)C` [I-225, N-[4-((E)-2-{3-tert-Butyl-5-[6-(2-hydroxy-ethoxymethyl)-2-oxo-1,2-dihydro-pyridin-3-yl]-2-methoxy-phenyl}-vinyl)-phenyl]-methanesulfonamide] was run?
Answer: The IC50 was 6 nM.

Question: With `COc1c(/C=C/c2ccc(NS(C)(=O)=O)cc2)cc(-c2ccc[nH]c2=O)cc1C1(OC)CC1` [I-266, N-(4-{(E)-2-[3-(1-methoxycyclopropyl)-5-(2-oxo-1,2-dihydropyridin-3-yl)-2-methoxyphenyl]vinyl}-phenyl)methanesulfonamide] as the compound, how does the IC50 read?
Answer: Its IC50 is 3 nM.

Question: With `COc1c(/C=C/c2ccc(NS(=O)(=O)CCN3CCOCC3)cc2)cc(-c2cc(F)c[nH]c2=O)cc1C(C)(C)C` [I-233] as the compound, how does the IC50 read?
Answer: The IC50 was 1 nM.

Question: How did the IC50 turn out when `CC(C)(CO)c1cc(/C=C/c2ccc(NS(C)(=O)=O)cc2)cc(-c2ccc[nH]c2=O)c1` [I-272, N-(4-{(E)-2-[3-(2-Hydroxy-1,1-dimethyl-ethyl)-5-(2-oxo-1,2-dihydro-pyridin-3-yl)-phenyl]-vinyl}-phenyl)-methanesulfonamide] was run?
Answer: The IC50 was 6 nM.

Question: For `COC(=O)c1ccccc1/C=C/c1cc(-c2ccc[nH]c2=O)cc(C(C)(C)C)c1OC` [I-242, 2-{(E)-2-[3-tert-Butyl-2-methoxy-5-(2-oxo-1,2-dihydro-pyridin-3-yl)-phenyl]-vinyl}-benzoic acid methyl ester], which IC50 is on record?
Answer: The IC50 was 2 nM.

Same assay, conditions: IC50 HCV NS5B RNA Polymerase Assay, values without asterisk; 20 nM NS5B570n-Con1 enzyme, 20 nM cIRES RNA template

Question: For `COc1c(/C=C/c2ccc(NS(C)(=O)=O)cc2)cc(-c2ccc[nH]c2=O)cc1C(C)(O)C(F)(F)F` (centres unmarked) [I-180], which IC50 is on record?
Answer: Its IC50 is 5 nM.

Question: Which IC50 does the source give for `COc1c(NC(=O)c2ccc(NS(C)(=O)=O)cc2F)cc(-c2ccc[nH]c2=O)cc1C(C)(C)C` [I-281] here?
Answer: Its IC50 is 7 nM.

Question: Which IC50 does the source give for `COc1c(/C=C/c2ccc(N)nn2)cc(-c2ccc[nH]c2=O)cc1C(C)(C)C` [I-181] here?
Answer: The IC50 was 8 nM.

Question: For `COc1c(C(=O)NCCc2ccccc2)cc(-c2ccc[nH]c2=O)cc1C(C)(C)C` [I-34], which IC50 is on record?
Answer: Its IC50 is 1700 nM.

Question: With `COc1c(NC(=O)c2ccc(NS(C)(=O)=O)cc2OCCN(C)C)cc(-c2ccc[nH]c2=O)cc1C(C)(C)C` [I-285] as the compound, how does the IC50 read?
Answer: Its IC50 is 149 nM.

Question: With `COc1c(C(=O)Nc2cccc(CO)c2)cc(-c2ccc[nH]c2=O)cc1C(C)(C)C` [I-97] as the compound, how does the IC50 read?
Answer: Its IC50 is 384 nM.

Question: Which IC50 does the source give for `COc1c(C(=O)NCc2cncn2C)cc(-c2ccc[nH]c2=O)cc1C(C)(C)C` [I-39] here?
Answer: The IC50 was 1340 nM.

Question: For `COc1c(/C=C/c2ccc(NS(=O)(=O)C3CC3)cc2)cc(-c2cc(F)c[nH]c2=O)cc1C(C)(C)C` [I-155, Cyclopropanesulfonic acid (4-{(E)-2-[3-tert-butyl-5-(5-fluoro-2-oxo-1,2-dihydro-pyridin-3-yl)-2-methoxy-phenyl]-vinyl}-phenyl)-amide], which IC50 is on record?
Answer: Its IC50 is 3 nM.

Question: How did the IC50 turn out when `COc1c(/C=C/c2ccc(NS(C)(=O)=O)nc2)cc(-c2ccc[nH]c2=O)cc1C(C)(C)C` [I-172] was run?
Answer: The IC50 was 3 nM.

Question: `COc1c(/C=C/c2ccc(NS(C)(=O)=O)nc2)cc(-c2cc(F)c[nH]c2=O)cc1C(C)(C)C` [I-175] was tested. Which IC50 did it give?
Answer: Its IC50 is 6 nM.

Question: `C/C(=C\c1cc(C(C)(C)C)cc(-c2ccc[nH]c2=O)c1O)c1ccc(NS(C)(=O)=O)cc1` [I-143] was tested. Which IC50 did it give?
Answer: Its IC50 is 308 nM.

Question: `COc1c(CC(C(N)=O)c2ccc(NS(C)(=O)=O)cc2)cc(-c2ccc[nH]c2=O)cc1C(C)(C)C` (centres unmarked) [I-178] was tested. Which IC50 did it give?
Answer: The IC50 was 15 nM.

Question: How did the IC50 turn out when `COc1c(NC(=O)c2ccc(NCC(F)(F)F)nn2)cc(-c2ccc[nH]c2=O)cc1C(C)(C)C` [I-248, 6-(2,2,2-Trifluoro-ethylamino)-pyridazine-3-carboxylic acid [3-tert-butyl-2-methoxy-5-(2-oxo-1,2-dihydro-pyridin-3-yl)-phenyl]-amide] was run?
Answer: Its IC50 is 19 nM.

Question: For `CN(C(=O)c1ccc(NS(C)(=O)=O)cc1)c1cc(-c2ccc[nH]c2=O)cc(C(C)(C)C)c1` [I-293, N-[3-tert-Butyl-5-(2-oxo-1,2-dihydro-pyridin-3-yl)-phenyl]-4-methanesulfonylamino-N-methyl-benzamide], which IC50 is on record?
Answer: The IC50 was 7 nM.

Question: With `CC(C)(C)c1cc(-c2ccc[nH]c2=O)cc(NC(=O)c2ccccc2)c1F` [I-60] as the compound, how does the IC50 read?
Answer: The IC50 was 1090 nM.

Question: Which IC50 does the source give for `COc1c(NC(=O)c2ccc(NC3CC3)cc2)cc(-c2ccc[nH]c2=O)cc1C(C)(C)C` [I-256, N-[3-tert-Butyl-2-methoxy-5-(2-oxo-1,2-dihydro-pyridin-3-yl)-phenyl]4-cyclopropylamino-benzamide] here?
Answer: Its IC50 is 19 nM.

Question: Which IC50 does the source give for `COc1c(CC(CN(C)C)c2ccc(NS(C)(=O)=O)cc2)cc(-c2ccc[nH]c2=O)cc1C(C)(C)C` (centres unmarked) [I-192, N-(4-{2-[3-tert-Butyl-2-methoxy-5-(2-oxo-1,2-dihydro-pyridin-3-yl)-phenyl]-1-dimethylaminomethyl-ethyl}-phenyl)-methanesulfonamide] here?
Answer: Its IC50 is 28 nM.

Question: How did the IC50 turn out when `COc1c(C(=O)Nc2cccc(O)c2C)cc(-c2ccc[nH]c2=O)cc1C(C)(C)C` [I-185] was run?
Answer: Its IC50 is 854 nM.

Question: For `Cc1cc(-c2ccc(CO)[nH]c2=O)cc(C(C)(C)C)c1` [I-12], which IC50 is on record?
Answer: Its IC50 is 892 nM.

Question: For `COc1c(NC(=O)c2ccc(NC3CC3)nc2)cc(-c2ccc[nH]c2=O)cc1C(C)(C)C` [I-255, N-[3-tert-Butyl-2-methoxy-5-(2-oxo-1,2-dihydro-pyridin-3-yl)-phenyl]-6-cyclopropylamino-nicotinamide], which IC50 is on record?
Answer: The IC50 was 70 nM.

Question: For `COc1c(C(=O)NC2CCC(N(C)C)CC2)cc(-c2ccc[nH]c2=O)cc1C(C)(C)C` (centres unmarked) [I-92], which IC50 is on record?
Answer: Its IC50 is 1690 nM.

Question: With `COc1c(NC(=O)c2ccc(NS(C)(=O)=O)cc2C)cc(-c2ccc[nH]c2=O)cc1C(C)(C)C` [I-282] as the compound, how does the IC50 read?
Answer: The IC50 was 13 nM.

Question: For `COc1c(C(=O)NCCN(C)C)cc(-c2ccc[nH]c2=O)cc1C(C)(C)C` [I-43], which IC50 is on record?
Answer: Its IC50 is 1750 nM.

Question: Which IC50 does the source give for `COc1c(NC(=O)c2ccc(NC(C)=O)cc2)cc(-c2ccc[nH]c2=O)cc1C(C)(C)C` [I-277] here?
Answer: The IC50 was 357 nM.

Question: Which IC50 does the source give for `CC(C)(C)c1cc(/C=C/c2ccc(NS(C)(=O)=O)c(F)c2)cc(-c2ccc[nH]c2=O)c1` [I-146, N-(4-{(E)-2-[3-tert-Butyl-5-(2-oxo-1,2-dihydro-pyridin-3-yl)-phenyl]-vinyl}-2-fluoro-phenyl)-methanesulfonamide] here?
Answer: Its IC50 is 3 nM.

Same assay, conditions: read-out: IC50 HCV NS5B RNA Polymerase Assay; values without asterisk; 20 nM NS5B570n-Con1 enzyme, 20 nM cIRES RNA template

Question: How did the IC50 turn out when `COc1c(/C=C/c2ccc(N)nc2)cc(-c2cc(F)c[nH]c2=O)cc1C(C)(C)C` [I-174] was run?
Answer: Its IC50 is 12 nM.

Question: Which IC50 does the source give for `COc1c(/C=C/c2ccc(NS(=O)(=O)C(F)(F)F)cc2)cc(-c2cc(F)c[nH]c2=O)cc1C(C)(C)C` [I-154] here?
Answer: The IC50 was 10 nM.
